The test system of the experiment is lung cancer cell line NCI-H460. The experiment is described as follows: inhibition of cell proliferation. The experiment is classed as cell-based. The following applies: Homo sapiens. As to the method: In order to evaluate the potential of HA nanocapsules encapsulating cytostatic docetaxel molecule to inhibit cell proliferation of lung cancer cell line NCI-H460, HA nanocapsules were prepared using hexadecyltrimethylammonium bromide (1.8 mg) according to the procedure described in Example 6. The results in FIG. 7 show the greatest ability to inhibit the proliferation of nanocapsules encapsulating docetaxel compared to the free molecule when systems are brought into contact for 2 to 48 h with the cancer cells. Moreover, one can see the safety of the systems without docetaxel. IC50 values, the concentration which produces 50% mortality of the population, was calculated using Graph Pad Prism 2.1 (Graph Pad Software).
In order to evaluate the potential of Pasn nanocapsules encapsulating docetaxel to inhibit cell proliferation of lung cancer cell line NCI-H460, PAsn nanocapsules were prepared using hexadecyltrimethylammonium bromide (1.8 mg) according to the procedure described in Example 12. The results in FIG. 11 show the greatest ability to inhibit the proliferation of nanocapsules encapsulating docetaxel compared to the free molecule when systems are brought into contact for 2 to 48 h with the cancer cells. Moreover, one can see the safety of the systems without docetaxel. IC50 values were calculated using Graph Pad Prism 2.1 (Graph Pad Software).

With `CC(=O)O[C@@]12CO[C@@H]1C[C@H](O)[C@@]1(C)C(=O)[C@H](O)C3=C(C)[C@@H](OC(=O)[C@H](O)[C@@H](NC(=O)OC(C)(C)C)c4ccccc4)C[C@@](O)([C@@H](OC(=O)c4ccccc4)[C@H]21)C3(C)C` [docetaxel], the IC50 is, setting by setting: (NCI-H460, in contact with the cells for 2 h) 105 nM; (NCI-H460, in contact with the cells for 48 h) 36 nM.
